The results in this text go back to patent US9981962B2, “Pyrazole derivatives as NIK inhibitors” (Janssen Pharmaceutica NV, priority 2014, dated 2018).

By EC50 is commonly meant the concentration giving half of the maximal effect. A low value points to greater potency. As a reminder, the IC50 is the concentration at which inhibition is half-maximal.

For experiment [1], the system named is LP-1 cells. In words: Biological Assay C: antiproliferative activity on LP-1 cells (CellTiter-Glo). Format: cell-based, human. As to conditions: Homo sapiens, LP-1, 72 h, 72 hr treatment, averaged values. As to the method:
(§1) Determination of Antiproliferative Activity on LP-1, L-363 and JJN-3 Cells
(§2) All compounds tested were dissolved in DMSO and further dilutions were made in culture medium. Final DMSO concentration was 0.3% (v/v) in cell proliferation assays. Viability was assessed using CellTiter-Glo cell viability assay kit (Promega). The human LP-1, L-363 and JJN-3 cells (DSMZ) were cultured in RPMI 1640 medium supplemented with 2 mM L-glutamine, and 10% fetal calf serum (PAA). Cells were routinely kept as suspension cells at 37° C. in a humidified 5% CO2 atmosphere. Cells were passaged at a seeding density of 0.2×10^6/ml twice a week. Cells were seeded in black tissue culture treated 96-well plates (Perkin Elmer). Densities used for plating ranged from 2,000 to 6,000 cells per well in a total volume of 75 μl medium. After twenty four hours, drugs and/or solvents were added (25 μl) to a final volume of 100 μl. Following 72 hr of treatment plates were removed from the incubator and allowed to equilibrate to room temperature for approx 10 min. 100 ut CellTiter-Glo reagent was added to each well that was then covered (Perkin Elmer Topseal) and shaken on plate shaker for 10 min. Luminescence was measured on a HTS Topcount (Perkin Elmer). Within an experiment, the results for each treatment were the mean of 2 replicate wells. For initial screening purposes, compounds were tested using a 9 point dilution curve (serial 1:3 dilutions). For each experiment, controls (containing no drug) and a blank incubation (containing cells read at the time of compound addition) were run in parallel. The blank value was subtracted from all control and sample values. For each sample, the mean value for cell growth (in relative light units) was expressed as a percentage of the mean value for cell growth of the control.
On the technique in general: In ATP-based viability assays light output follows the ATP content of the culture.

In experiment [2] the test system is L-363 cells. Description: Biological Assay C: antiproliferative activity on L-363 cells (CellTiter-Glo). Format: cell-based, human. The following applies: Homo sapiens, L-363, 72 h, 72 hr treatment, averaged values. The protocol: as §1, §2
Experiment [3] has as its system JJN-3 cells. Description: Biological Assay C: antiproliferative activity on JJN-3 cells (CellTiter-Glo). In kind it is cell-based, human. As to conditions: Homo sapiens, JJN-3, 72 h, 72 hr treatment, averaged values. The protocol: as §1, §2
In experiment [4] the target is T1, Recombinant Human NF-kappaB-Inducing Kinase (NIK/MAP3K14) (Homo sapiens, UniProt Q99558). Description: Biological Assay A2: inhibition of auto-phosphorylation of recombinant human NIK/MAP3K14 (AlphaScreen). Format: biochemical. The following applies: 0.2 nM GST-tagged NIK, 25 microM ATP, 1 h at 25° C., averaged values. The protocol:
Inhibition of Auto-Phosphorylation of Recombinant Human NF-kappaB-Inducing Kinase (NIK/MAP3K14) Activity (AlphaScreen®)
NIK/MAP3K14 auto-phosphorylation activity was measured using the AlphaScreen® (αscreen) format (Perkin Elmer). All compounds tested were dissolved in dimethyl sulfoxide (DMSO) and further dilutions were made in assay buffer. Final DMSO concentration was 1% (v/v) in assays. Assay buffer was 50 mM Tris pH 7.5 containing 1 mM EGTA (ethylene glycol tetraacetic acid), 1 mM DTT (dithiothreitol), 0.1 mM Na3VO4, 5 mM MgCl2, 0.01% Tween® 20. Assays were carried out in 384 well Alphaplates (Perkin Elmer). Incubations consisted of compound, 25 microM Adenosine-5′-triphosphate (ATP), and 0.2 nM NIK/MAP3K14. Incubations were initiated by addition of GST-tagged NIK/MAP3K14 enzyme, carried out for 1 h at 25° C. and terminated by addition of stop buffer containing anti-phospho-IKK Ser176/180 antibody. Protein A Acceptor and Glutathione-Donor beads were added before reading using an EnVision® Multilabel Plate Reader (Perkin Elmer). Signal obtained in the wells containing blank samples was subtracted from all other wells and IC50's were determined by fitting a sigmoidal curve to % inhibition of control versus Log10 compound concentration.

For experiment [5], the system named is P-IKKα levels in L363 cells. Description: Biological Assay B: effect of compounds on P-IKKα levels in L363 cells. In kind it is cell-based. As to conditions: Homo sapiens, L-363, BAFF stimulated, 2 hr treatment, averaged values, read-out: IKKα Cellular IC50. As to the method:
Effect of Compounds on P-IKKα Levels in L363 Cells
All compounds tested were dissolved in DMSO and further dilutions were made in culture medium. Final DMSO concentration was 1% (v/v) in cell assays. The human L363 cells (ATCC) were cultured in RPMI 1640 medium supplemented with GlutaMax and 10% fetal calf serum (PAA). Cells were routinely maintained at densities of 0.2×10^6 cells per ml—1×10^6 cells per ml at 37° C. in a humidified 5% CO2 atmosphere. Cells were passaged twice a week splitting back to obtain the low density. Cells were seeded in 96 well plates (Nunc 167008) at 2×10^6 per ml media in a volume of 75 μl per well plus 25 μl 1 μg/ml recombinant human B-cell activating factor (BAFF/BLyS/TNFSF13B). Seeded cells were incubated at 37° C. in a humidified 5% CO2 atmosphere for 24 hr. Drugs and/or solvents were added (20 μl) to a final volume of 120 μl. Following 2 hr treatment plates were removed from the incubator and cell lysis was achieved by the addition of 30 μl 5× lysis buffer followed by shaking on a plate shaker at 4° C. for 10 min. At the end of this incubation lysed cells were centrifuged at 800×g for 20 min at 4° C. and the lysate was assessed for P-IKKα levels by sandwich immuno-assay carried out in anti-rabbit antibody coated Mesoscale plates. Within an experiment, the results for each treatment were the mean of 2 replicate wells. For initial screening purposes, compounds were tested using an 8 point dilution curve (serial 1:3 dilutions). For each experiment, controls (containing MG132 and BAFF but no test drug) and a blank incubation (containing MG132 and BAFF and 10 μM ADS125117, a test concentration known to give full inhibition) were run in parallel. The blank incubation value was subtracted from all control and sample values. To determine the IC50 a sigmoidal curve was fitted to the plot of % inhibition of control P-IKKα levels versus Log10 compound concentration.

For experiment [6], the target named is T1, Recombinant Human NF-kappaB-Inducing Kinase (NIK/MAP3K14). In words: Biological Assay A: inhibition of recombinant human NIK/MAP3K14 activity (MSD, MBP substrate). The following applies: 10 nM NIK, 25 μM ATP, 1 h at 25° C.; averaged over all measurements on all batches; read-out: Biochemical (MSD IC50). The protocol:
Inhibition of Recombinant Human NF-kappaB-Inducing Kinase (NIK/MAP3K14) Activity Assay buffer was 50 mM Tris pH 7.5 containing 1 mM EGTA (ethylene glycol tetraacetic acid), 1 mM DTT (dithiothreitol), 0.1 mM Na3VO4, 5 mM MgCl2, 0.01% Tween® 20. Assays were carried out in 384 well Mesoscale high binding plates which had been coated with myelin basic protein (MBP) and blocked with bovine serum albumin to prevent non-specific protein binding. All compounds tested were dissolved in dimethyl sulfoxide (DMSO) and further dilutions were made in assay buffer. Final DMSO concentration was 1% (v/v) in assays. Incubations consisted of compound (1% DMSO in control and blank wells), 25 μM Adenosine-5′-triphosphate (ATP), and 10 nM NIK/MAP3K14 substituting enzyme with buffer in the blank wells. Incubations were carried out for 1 h at 25° C. and were followed by washing and sequential incubation with rabbit anti-phospho-MBP and anti-rabbit Ig Sulfotag antibody before reading bound Sulfotag on a Mesoscale Discovery. Signal obtained in the wells containing blank samples was subtracted from all other wells and ICso's were determined by fitting a sigmoidal curve to % inhibition of control versus Log10 compound concentration.

T1 sequence (Q99558 whole entry): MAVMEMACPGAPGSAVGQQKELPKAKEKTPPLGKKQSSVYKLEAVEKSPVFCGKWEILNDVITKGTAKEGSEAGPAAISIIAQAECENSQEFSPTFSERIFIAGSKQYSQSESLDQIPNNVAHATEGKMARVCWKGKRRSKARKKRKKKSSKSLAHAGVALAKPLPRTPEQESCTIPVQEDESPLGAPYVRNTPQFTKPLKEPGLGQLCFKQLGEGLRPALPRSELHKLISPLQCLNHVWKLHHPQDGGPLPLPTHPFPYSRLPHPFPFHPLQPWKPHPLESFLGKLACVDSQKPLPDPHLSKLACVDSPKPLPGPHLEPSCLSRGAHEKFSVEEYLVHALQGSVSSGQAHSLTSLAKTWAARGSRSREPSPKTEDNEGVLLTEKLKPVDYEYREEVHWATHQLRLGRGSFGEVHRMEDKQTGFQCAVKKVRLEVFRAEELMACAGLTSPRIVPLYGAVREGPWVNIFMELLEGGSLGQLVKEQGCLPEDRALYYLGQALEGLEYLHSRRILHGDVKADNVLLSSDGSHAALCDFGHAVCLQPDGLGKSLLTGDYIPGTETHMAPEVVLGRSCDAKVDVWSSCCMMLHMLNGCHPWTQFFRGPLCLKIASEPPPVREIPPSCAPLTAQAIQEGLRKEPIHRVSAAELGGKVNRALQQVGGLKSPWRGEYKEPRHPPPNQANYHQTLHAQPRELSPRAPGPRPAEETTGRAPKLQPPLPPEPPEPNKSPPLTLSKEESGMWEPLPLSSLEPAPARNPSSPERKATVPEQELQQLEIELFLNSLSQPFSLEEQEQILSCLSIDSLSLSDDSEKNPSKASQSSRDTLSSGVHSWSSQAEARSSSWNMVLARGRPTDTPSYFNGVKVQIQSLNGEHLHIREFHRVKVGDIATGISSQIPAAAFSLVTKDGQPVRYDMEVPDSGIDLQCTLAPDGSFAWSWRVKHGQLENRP

On to `Cn1cc(-c2cn[nH]c2)c2cc(C#CC(C)(C)O)ccc21` [Compound 12], for which the EC50 in experiment [1] came out at 769 nM; in experiment [2], 700 nM; in experiment [3], 754 nM. In addition, the IC50 in experiment [4] is 65 nM; in experiment [5] it was 38 nM; in experiment [6], 41 nM.
As to `CC(O)(C#Cc1ccc2[nH]cc(-c3cn[nH]c3)c2c1)c1nccs1` (stereo not drawn) [Compound 13], the EC50 was determined as 9910 nM in experiment [1], 5520 nM in experiment [2] and 704 nM in experiment [3]. Besides, the 50% inhibitory concentration (IC50) in experiment [4] was found to be 7 nM; in experiment [5] it was 16 nM; in experiment [6] it was 9 nM.
In the case of `OC1(C#Cc2ccc3[nH]cc(-c4cn[nH]c4)c3c2)CCCC1` [Compound 14], the EC50 turned out to be 5440 nM in experiment [1], 4050 nM in experiment [2] and 2200 nM in experiment [3]. For the same compound, the 50% inhibitory concentration (IC50) in experiment [4] came out at 28 nM; in experiment [5], 300 nM; in experiment [6], 30 nM.
